The source of these data is PMC6089848 (Acta Pharmaceutica Sinica. B, 2018).

Structures can show the parent of a compound that is named as a salt.

Data set [1] relates to pseudotyped Vesicular Stomatitis Virus (pHIV-VSVGP-Fluc). Type of data set: cell-based, Vesicular Stomatitis Virus (VSV). Particulars: read-out: Anti-VSV IC50.
The test system of data set [2] is human embryonic kidney (HEK) 293 T cells.
The test system of data set [3] is pseudotyped EBOV virus (pHIV-EBOVGP-Fluc). It is filed as cell-based, Ebola virus (EBOV). The following applies: for IC50: read-out: Anti-EBOV IC50.
The next data set can be described thus: in vitro. Particulars: human.
The next data set concerns pHIV-MARVGP-Fluc virus. Set-up: species or system BALB/c mice. Particulars: mouse, ip.

On to `COC(=O)CCCC1C2CCCN3CCCC(CN1Cc1ccc(Cl)c(Cl)c1)C23.Cl.Cl` (stereo not drawn) [4a, methyl 12N-3′,4′-dichlorobenzyl sophoridinate dihydrochloride], for which the concentration for half-maximal inhibition (IC50) in data set [1] worked out at 7.52 µM. For the same molecule, in data set [2], the CC50 was found to be 22.2 µM. Moreover, in data set [3], the SI was found to be 8.28 and the IC50 came to 2.68 µM.
Taken in the same sequence, the figures for `COC(=O)CCC[C@@H]1[C@H]2CCCN3CCC[C@H](CN1C(=O)c1ccc(Cl)cc1)[C@@H]23` [4b, Methyl 12N-p-chlorobenzoyl sophoridinate] were over 200 µM, 200 µM, 5.12 and 39.1 µM.
Taken in the same sequence, the figures for `COC(=O)CCCC1C2CCCN3CCCC(CN1S(=O)(=O)c1ccc(Cl)cc1)C23` (stereo not drawn) [4c, Methyl 12N-p-chlorobenzenesulfonyl sophoridinate] were over 22 µM, over 22 µM, over 7.59 and 2.9 µM.
For the molecule `O=C(O)CCCC1C2CCCN3CCCC(CN1C(=O)c1ccc(Cl)cc1)C23` (stereo not drawn) [5b, 12N-p-Chlorobenzoyl sophoridinic acid], the half-inhibitory concentration (IC50) in data set [1] and in data set [3] was over 200 µM each time. In addition, in data set [2], the CC50 was over 200 µM.
`O=C(O)CCCC1C2CCCN3CCCC(CN1S(=O)(=O)c1ccc(Cl)cc1)C23` (stereo not drawn) [5c, 12N-p-Chlorobenzenesulfonyl sophoridinic acid]: the IC50 is over 200 µM in data set [1] and 11.4 µM in data set [3]. In data set [3], this molecule registered an SI of 17.5.
Regarding `COC(=O)CCCC1C2CCCN3CCCC(CN1Cc1ccc(Cl)cc1)C23.Cl.Cl` (stereo not drawn) [7a, Methyl 12N-p-chlorobenzyl matrinate dihydrochloride], the IC50 in data set [1] was found to be 188 µM. For the same molecule, the CC50 in data set [2] was found to be 200 µM. For the same molecule, in data set [3], the SI is given as 7.87 and the IC50 amounted to 25.4 µM.
With `O=C(O)CCC[C@@H]1[C@H]2CCCN3CCC[C@@H](CN1Cc1ccc(Cl)cc1)[C@@H]23` [8a, 12N-p-Chlorobenzyl matrinic acid dihydrochloride], the IC50 in data set [1] and in data set [3] was over 200 µM in each case. Besides, in data set [2], the CC50 was determined as 200 µM.
With `COC(=O)CC1C2CCCN3CCCC(CN1S(=O)(=O)c1ccc(Cl)cc1)C23.Cl` (stereo not drawn) [10c, Methyl 12N-p-chlorobenzesulfonyl matrinic acetate hydrochloride], in data set [1], the IC50 is over 200 µM. In addition, the CC50 in data set [2] is over 200 µM. Also, in data set [3], the SI is given as over 7.46 and the half-maximal inhibitory concentration (IC50) is 26.8 µM.
On to `COC(=O)CC1C2CCCN3CCCC(CN1Cc1ccc(Cl)c(Cl)c1)C23.Cl.Cl` (stereo not drawn) [10d, Methyl 12N-3′,4′-dichlorobenzyl matrinic acetate dihydrochloride], for which the IC50 in data set [1] worked out at 123 µM. The CC50 in data set [2] is 153 µM. For the same molecule, in data set [3], the SI is given as 15.3 and the concentration for half-maximal inhibition (IC50) stood at 10 µM.
In the case of `O=C(O)CC1C2CCCN3CCCC(CN1Cc1ccc(Cl)cc1)C23` (stereo not drawn) [11a, 12N-p-Chlorobenzyl matrinic acetic acid], the concentration for half-maximal inhibition (IC50) in data set [1] and in data set [3] was over 200 µM throughout. Further, in data set [2], the CC50 was over 200 µM.
Turning to `O=C(O)CC1C2CCCN3CCCC(CN1C(=O)c1ccc(Cl)cc1)C23` (stereo not drawn) [11b, 12N-p-Chlorobenzoyl matrinic acetic acid], the IC50 in data set [1] and in data set [3] was over 200 µM throughout. Also, the CC50 in data set [2] was over 200 µM.
Regarding `O=C(O)CC1C2CCCN3CCCC(CN1CCCc1cc(Cl)cc(Cl)c1)C23` (stereo not drawn) [15f, 12N-3′,5′-Dichlorohydrocinnamyl matrinic acetic acid], the CC50 in data set [2] came out at 83.3 µM.
In turn, `CN[C@H]1CC[C@@H](c2ccc(Cl)c(Cl)c2)c2ccccc21` [Sertraline, sertraline] yielded a CC50 in the data set “in vitro” of 29.2 µM. Further, the “reduction (bioluminescence), in vivo anti-MARV” value in the data set on pHIV-MARVGP-Fluc virus is “no activity at all”.
